# Laboratory results taken from ChEMBL document CHEMBL3621049, “Imidazole derivatives show anticancer potential by inducing apoptosis and cellular senescence” (2014).
# Activity calls are given as the source filed them. The calls are words filed in the database; no cut-off is given here.
# Experiments:
# NCI-H226 = experiment: Growth inhibition of human NCI-H226 cells at 10 uM by sulforhodamine B assay; format: functional, cell-based
# A498 = experiment: Growth inhibition of human A498 cells at 10 uM by sulforhodamine B assay; format: functional, cell-based
# K562 = experiment: Growth inhibition of human K562 cells at 10 uM by sulforhodamine B assay; format: functional, cell-based
# A549 [1] = experiment: Cell cycle arrest in human A549 cells assessed as accumulation at G2/M phase at 5 uM after 48 hrs using propidium iodide staining by flow cytometer analysis (reference value: 13.02%); format: functional
# NCI/ADR-RES = experiment: Growth inhibition of human NCI/ADR-RES cells at 10 uM by sulforhodamine B assay; format: functional, cell-based
# ACHN = experiment: Growth inhibition of human ACHN cells at 10 uM by sulforhodamine B assay; format: functional, cell-based
# SN12C = experiment: Growth inhibition of human SN12C cells at 10 uM by sulforhodamine B assay; format: functional, cell-based
# TK-10 = experiment: Growth inhibition of human TK10 cells at 10 uM by sulforhodamine B assay; format: functional, cell-based
# OVCAR-3 = experiment: Growth inhibition of human OVCAR3 cells at 10 uM by sulforhodamine B assay; format: functional, cell-based
# OVCAR-5 = experiment: Growth inhibition of human OVCAR5 cells at 10 uM by sulforhodamine B assay; format: functional, cell-based
# UACC-62 = experiment: Growth inhibition of human UACC62 cells at 10 uM by sulforhodamine B assay; format: functional, cell-based
# HOP-62 = experiment: Growth inhibition of human HOP62 cells at 10 uM by sulforhodamine B assay; format: functional, cell-based
# MDA-MB-435 = experiment: Growth inhibition of human MDA-MB-435 cells at 10 uM by sulforhodamine B assay; format: functional, cell-based
# A549 [2] = experiment: Cell cycle arrest in human A549 cells assessed as accumulation at sub-G1 phase at 10 uM after 48 hrs using propidium iodide staining by flow cytometer analysis (reference value: 0.96%); format: functional
# NCI-H23 = experiment: Growth inhibition of human NCI-H23 cells at 10 uM by sulforhodamine B assay; format: functional, cell-based
# MCF7 = experiment: Growth inhibition of human MCF7 cells at 10 uM by sulforhodamine B assay; format: functional, cell-based
# RPMI-8226 = experiment: Growth inhibition of human RPMI8226 cells at 10 uM by sulforhodamine B assay; format: functional, cell-based
# SK-MEL-2 = experiment: Growth inhibition of human SK-MEL-2 cells at 10 uM by sulforhodamine B assay; format: functional, cell-based
# Hs-578T = experiment: Growth inhibition of human Hs 578T cells at 10 uM by sulforhodamine B assay; format: functional, cell-based
# PC-3 = experiment: Growth inhibition of human PC3 cells at 10 uM by sulforhodamine B assay; format: functional, cell-based
# SK-OV-3 = experiment: Growth inhibition of human SKOV3 cells at 10 uM by sulforhodamine B assay; format: functional, cell-based
# A549 [3] = experiment: Cytotoxicity against human A549 cells assessed as decrease in cell viability up to 72 hrs by MTT assay; format: functional, cell-based
# MOLT-4 = experiment: Growth inhibition of human MOLT4 cells at 10 uM by sulforhodamine B assay; format: functional, cell-based
# A549 [4] = experiment: Cytotoxicity against human A549 cells assessed as decrease in cell viability at 10 uM after 24 hrs by MTT assay relative to control; format: functional
# SW-620 = experiment: Growth inhibition of human SW620 cells at 10 uM by sulforhodamine B assay; format: functional, cell-based
# SNB-75 = experiment: Growth inhibition of human SNB75 cells at 10 uM by sulforhodamine B assay; format: functional, cell-based
# T47D = experiment: Growth inhibition of human T47D cells at 10 uM by sulforhodamine B assay; format: functional, cell-based
# A549 [5] = experiment: Cell cycle arrest in human A549 cells assessed as accumulation at S phase at 5 uM after 48 hrs using propidium iodide staining by flow cytometer analysis (reference value: 6.67%); format: functional
# A549 [6] = experiment: Cell cycle arrest in human A549 cells assessed as accumulation at G2/M phase at 10 uM after 48 hrs using propidium iodide staining by flow cytometer analysis (reference value: 13.02%); format: functional
# SR = experiment: Growth inhibition of human SR cells at 10 uM by sulforhodamine B assay; format: functional, cell-based
# HT-29 = experiment: Growth inhibition of human HT-29 cells at 10 uM by sulforhodamine B assay; format: functional, cell-based
# A549 [7] = experiment: Induction of apoptosis in human A549 cells assessed as activation of caspase; format: functional, cell-based
# A549 [8] = experiment: Inhibition of cell migration in human A549 cells assessed as cells migrating into scratch area after 24 hrs by wound healing assay; format: functional, cell-based
# NCI-H322M = experiment: Growth inhibition of human NCI-H322M cells at 10 uM by sulforhodamine B assay; format: functional, cell-based
# HL-60(TB) = experiment: Growth inhibition of human HL-60(TB) cells at 10 uM by sulforhodamine B assay; format: functional, cell-based
# A549 [9] = experiment: Cell cycle arrest in human A549 cells assessed as accumulation at G0/G1 phase at 20 uM after 48 hrs using propidium iodide staining by flow cytometer analysis (reference value: 79.34%); format: functional
# IGROV-1 = experiment: Growth inhibition of human IGROV1 cells at 10 uM by sulforhodamine B assay; format: functional, cell-based
# NCI-H460 = experiment: Growth inhibition of human NCI-H460 cells at 10 uM by sulforhodamine B assay; format: functional, cell-based
# A549 [10] = experiment: Induction of cellular senescence in human A549 cells assessed as increase of endogenous level of beta-galactosidase by […]/X-gal staining; format: functional, cell-based
# A549 [11] = experiment: Cell cycle arrest in human A549 cells assessed as accumulation at sub-G1 phase at 20 uM after 48 hrs using propidium iodide staining by flow cytometer analysis (reference value: 0.96%); format: functional
# A549 [12] = experiment: Cell cycle arrest in human A549 cells assessed as accumulation at G0/G1 phase at 10 uM after 48 hrs using propidium iodide staining by flow cytometer analysis (reference value: 79.34%); format: functional
# COLO 205 = experiment: Growth inhibition of human COLO205 cells at 10 uM by sulforhodamine B assay; format: functional, cell-based
# UACC-257 = experiment: Growth inhibition of human UACC257 cells at 10 uM by sulforhodamine B assay; format: functional, cell-based
# OVCAR-8 = experiment: Growth inhibition of human OVCAR8 cells at 10 uM by sulforhodamine B assay; format: functional, cell-based
# A549 [13] = experiment: Cell cycle arrest in human A549 cells assessed as accumulation at sub-G1 phase at 5 uM after 48 hrs using propidium iodide staining by flow cytometer analysis (reference value: 0.96%); format: functional
# UO-31 = experiment: Growth inhibition of human UO31 cells at 10 uM by sulforhodamine B assay; format: functional, cell-based
# SF-539 = experiment: Growth inhibition of human SF539 cells at 10 uM by sulforhodamine B assay; format: functional, cell-based
# CCRF-CEM = experiment: Growth inhibition of human CCRF-CEM cells at 10 uM by sulforhodamine B assay; format: functional, cell-based
# NCI-H522 = experiment: Growth inhibition of human NCI-H522 cells at 10 uM by sulforhodamine B assay; format: functional, cell-based
# Malme-3M = experiment: Growth inhibition of human MALME-3M cells at 10 uM by sulforhodamine B assay; format: functional, cell-based
compound,measurement,setting,value
COc1ccc(-c2nc(-c3ccccn3)c(-c3ccccn3)n2CC(C)C)cc1OC1CCCC1,growth inhibition (GI),NCI-H226,Active
same,growth inhibition (GI),A498,Active
same,growth inhibition (GI),K562,Active
same,Activity,A549 [1],4.65%
same,growth inhibition (GI),NCI/ADR-RES,Active
same,growth inhibition (GI),ACHN,Active
same,growth inhibition (GI),SN12C,Active
same,growth inhibition (GI),TK-10,Active
same,growth inhibition (GI),OVCAR-3,Active
same,growth inhibition (GI),OVCAR-5,Active
same,growth inhibition (GI),UACC-62,Active
same,growth inhibition (GI),HOP-62,Active
same,growth inhibition (GI),MDA-MB-435,Active
same,Activity,A549 [2],7.63%
same,growth inhibition (GI),NCI-H23,Active
same,growth inhibition (GI),MCF7,Active
same,growth inhibition (GI),RPMI-8226,Active
same,growth inhibition (GI),SK-MEL-2,Active
same,growth inhibition (GI),Hs-578T,Active
same,growth inhibition (GI),PC-3,Active
same,growth inhibition (GI),SK-OV-3,Active
same,Activity,A549 [3],Dose-dependent effect
same,growth inhibition (GI),MOLT-4,Active
same,fold change (FC),A549 [4],2
same,growth inhibition (GI),SW-620,Active
same,growth inhibition (GI),SNB-75,Active
same,growth inhibition (GI),T47D,Active
same,Activity,A549 [5],3.47%
same,Activity,A549 [6],6.73%
same,growth inhibition (GI),SR,Active
same,growth inhibition (GI),HT-29,Active
same,Activity,A549 [7],inactive
same,inhibition,A549 [8],Dose-dependent effect
same,growth inhibition (GI),NCI-H322M,Active
same,growth inhibition (GI),HL-60(TB),Active
same,Activity,A549 [9],69.52%
same,growth inhibition (GI),IGROV-1,Active
same,growth inhibition (GI),NCI-H460,Active
same,Activity,A549 [10],Dose-dependent effect
same,Activity,A549 [11],19.34%
same,Activity,A549 [12],75.7%
same,growth inhibition (GI),COLO 205,Active
same,growth inhibition (GI),UACC-257,Active
same,growth inhibition (GI),OVCAR-8,Active
same,Activity,A549 [13],2.49%
same,growth inhibition (GI),UO-31,Active
same,growth inhibition (GI),SF-539,Active
same,growth inhibition (GI),CCRF-CEM,Active
same,growth inhibition (GI),NCI-H522,Active
same,growth inhibition (GI),Malme-3M,Active
